Source: patent USRE44962E1, “Genetically engineered plant cells and plants exhibiting resistance to glutamine synthetase inhibitors, DNA fragments and recombinants for use in the production of said cells and plants” (Bayer Cropscience N.V., priority 1986, dated 2014)

System: S. lividans
Assay type: cell-based
Conditions: relative to S. lividans without the plasmid

For `CC(NC(=O)C(C)NC(=O)C(N)CCP(C)(=O)O)C(=O)O` (stereo not shown) [Bialaphos], the “resistance to Bialaphos of S. lividans strains containing pBG20” value was “more than 500 times”.
